Experimental data from patent US20220412956A1, “METHODS FOR ASSESSING TOXICITY OF A COMPOUND” (The Chinese University of Hong Kong, priority 2021, published 2022).
“Also recorded” adds a separate entry of the source. Read-outs that look alike come from different tables or passages of the source.

Key:
[1] = tested on: hiPSC-CMs; test: Mitochondrial morphology, Mitotracker staining (elongated / punctate / perinuclear); design: perinuclear mitochondria: dose or concentration left out as unconfirmed; settings: for mitochondrial morphology (MTDR dye): FIG. 8B, treated CMs vs control; for proportion of cells with healthy elongated mitochondria: FIG. 8C; for proportion of cells with punctate, fragmented mitochondria / proportion of punctate mitochondria / proportion of elongated mitochondria: 3 days; for proportion of cells with punctate, fragmented mitochondria: control 21.0±5.9%; for proportion of cells with punctate mitochondria / elongated mitochondria: 3 days hypoxic treatment + 3 days recovery; for proportion of cells with punctate mitochondria: control 46.1±[…]; for elongated mitochondria: control 47.4±4.9%; for proportion of punctate mitochondria / proportion of elongated mitochondria: hypoxic; for proportion of punctate mitochondria: control 37.3±6.1%; for proportion of elongated mitochondria: control 45.1±7.8%
[2] = tested on: hiPSC-CMs
[3] = tested on: hiPSC-CMs; remark: listed apart in the source
[4] = target: human mitochondrial RNA polymerase (Homo sapiens, UniProt O00411); settings: purified enzyme; cited from earlier work
[5] = tested on: hPSC-CMs; settings: cited from earlier work
[6] = tested on: hiPSC-CMs; settings: human
[7] = tested on: hiPSC-CMs; test: In vitro hiPSC-CM cardiotoxicity model, overall; type: cell-based, human; settings: 0.1 μM and 0.5 μM
From the text: Importantly, these changes persisted and worsened after the withdrawal of this drug.
Human iPSC-CMs were exposed to remdesivir under normal and hypoxic conditions for three days. There is a paucity of data which directly correlates oxygen saturation in vivo with oxygen concentration in vitro. […] Human iPSC-CMs exposed to 2.5% 02 were viable, beat and were morphologically indistinguishable from hiPSC-CMs cultured under normoxic (20% 02) conditions.
Importantly, these abnormalities persisted after cessation of treatment, culminating in increased cell death.

[8] = tested on: hiPSC-CMs; test: Mitochondrial mass, mitotracker dye (MTDR) intensity; type: cell-based, human; settings: 0.1-12.5 μM, 3 days, normoxic and hypoxic
Experimental: (§1) Cells were incubated with Mitotracker Deep Red FM dye (200 nM; Thermo Fisher Scientific) and Hoescht 33342 dye (5 μg/ml; Thermo Fisher Scientific) for 30 min at 37° C., after which they were fixed with 4% paraformaldehyde at room temperature for 15 min followed by 15 min wash with PBS and imaged with a Leica THUNDER Imager microscope or Nikon AIR HD25 confocal microscope.
The first consisted of densely organised, elongated mitochondrial networks spread throughout the cytoplasm and this is considered to represent a healthy balance of fission and fusion. The second had punctate, fragmented mitochondria consistent with increased fission.

[9] = cited from earlier work; for peak plasma concentration: healthy adult volunteers; for Cmax: healthy volunteers, read-out: Cmax / peak plasma concentration
[10] = tested on: hiPSC-CMs; test: Nuclear condensation / nuclear morphology / cell number, Hoescht staining; type: cell-based, human
Experimental: as §1
Similarly, nuclei were scored as normal (relatively large nuclei with regular shape) or condensed (intensely stained nuclei with irregular shape) by a technician blinded to the identities of the samples.
Nuclear condensation is a sign of apoptosis and manifest as brightly-stained, small and ‘condensed’ nuclei.

[11] = tested on: HT29, HCT116, HepG2 and PLC/PRF/5; settings: high doses of 10 or 20 μM; cited from earlier work
[12] = tested on: hiPSC-CMs; test: Mitochondrial membrane potential (Δψm), TMRE; type: cell-based, human; settings: 3 days, treated vs control
Experimental: Δψm was measured using the tetramethylrhodamine, ethyl ester (TMRE), a potentiometric dye whose fluorescent intensity is proportional to the mitochondrial potential. CMs were plated into Matrigel-coated surfaces in RPMI/B27 medium. Cells were incubated with TMRE (25 nM; Thermo Fisher Scientific) for 30 min at 37° C., after which they were washed with DPBS and intensity of fluorescence was measured using the Synergy HTX plate-reader (Biotek, Winooski, Vt.) with excitation and emission wavelengths of 540 nm and 590 nm.

[13] = tested on: ND1, ND5, SDHA, COX6A2, ATP6, ACADVL mRNA; test: qRT-PCR of genes important for mitochondrial function; type: cell-based, human; settings: 3 days, normoxic or hypoxic, normalised to B2M
Experimental: Total RNA was extracted using Trizol Reagent according to the manufacturer's instructions (Thermo Fisher Scientific). Extracted RNA was reverse transcribed using PrimeScript RT Master Mix (Takara). Quantitative RT-PCR of target genes was performed with GoTaq® qPCR Master Mix (Promega) using an QuantStudio™ 12K Flex. Gene transcript abundance was normalised to B2M and then to that of the untreated sample to control for biological variations among the different sets of samples.
Of the ETC genes, ND1, ND5 and ATP6 are encoded by the mitochondrial genome, while COX6A2 and SDHA are encoded by the nuclear genome. […] Overall, the general repression of ETC gene transcripts was consistent with and might contribute to the reduced redox potential observed (FIG. 1A).

[14] = cited from earlier work
[15] = tested on: hiPSC-CMs; remark: listed apart in the source
[16] = co-treatment with 12.5 μM remdesivir

Sequence of human mitochondrial RNA polymerase (O00411 42-1230): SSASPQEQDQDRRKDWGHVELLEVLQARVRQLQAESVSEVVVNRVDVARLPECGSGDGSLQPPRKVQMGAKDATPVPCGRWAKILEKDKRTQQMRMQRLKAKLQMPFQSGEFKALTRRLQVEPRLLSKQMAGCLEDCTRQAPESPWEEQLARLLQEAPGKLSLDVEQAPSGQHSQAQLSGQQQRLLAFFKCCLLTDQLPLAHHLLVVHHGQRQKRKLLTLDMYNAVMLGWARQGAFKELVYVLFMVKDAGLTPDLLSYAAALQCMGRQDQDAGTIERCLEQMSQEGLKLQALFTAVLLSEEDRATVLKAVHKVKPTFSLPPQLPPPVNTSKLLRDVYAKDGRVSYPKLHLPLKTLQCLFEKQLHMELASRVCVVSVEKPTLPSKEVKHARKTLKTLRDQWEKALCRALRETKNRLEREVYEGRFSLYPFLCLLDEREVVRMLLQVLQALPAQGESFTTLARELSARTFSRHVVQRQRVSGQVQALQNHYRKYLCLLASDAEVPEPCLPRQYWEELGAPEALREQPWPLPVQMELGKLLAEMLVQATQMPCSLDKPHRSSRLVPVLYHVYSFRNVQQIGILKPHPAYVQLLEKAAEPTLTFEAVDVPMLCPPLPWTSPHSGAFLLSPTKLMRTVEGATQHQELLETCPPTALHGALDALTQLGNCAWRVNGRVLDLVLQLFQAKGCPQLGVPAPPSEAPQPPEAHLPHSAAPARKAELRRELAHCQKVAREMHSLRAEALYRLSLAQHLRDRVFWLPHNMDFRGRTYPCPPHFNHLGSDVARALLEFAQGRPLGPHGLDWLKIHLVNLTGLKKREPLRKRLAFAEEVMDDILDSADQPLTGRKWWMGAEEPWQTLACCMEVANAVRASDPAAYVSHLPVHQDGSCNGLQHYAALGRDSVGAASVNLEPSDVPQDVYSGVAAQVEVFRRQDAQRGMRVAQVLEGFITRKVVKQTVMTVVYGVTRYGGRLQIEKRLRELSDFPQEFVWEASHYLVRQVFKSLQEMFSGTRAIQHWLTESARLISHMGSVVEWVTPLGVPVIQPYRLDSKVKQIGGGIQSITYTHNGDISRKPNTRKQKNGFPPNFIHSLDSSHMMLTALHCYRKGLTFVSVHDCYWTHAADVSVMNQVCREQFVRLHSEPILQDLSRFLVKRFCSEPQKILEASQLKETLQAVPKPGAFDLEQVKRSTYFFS

## COc1nc(N)nc2c1ncn2[C@@H]1O[C@H](COP(=O)(N[C@@H](C)C(=O)OCC(C)(C)C)Oc2cccc3ccccc23)[C@@H](O)[C@@]1(C)O (some centres unmarked) [BMS-986094]
[1]
  mitochondrial morphology (MTDR dye): punctate (arrowhead) or perinuclear (arrow) mitochondria
  proportion of cells with healthy elongated mitochondria: reduced

## COc1cc(-n2c(=S)[nH]c3ccccc3c2=O)c(Cl)cc1Cl [mdivi-1]
[2]; co-treatment with 2.5 μM remdesivir, normoxic and hypoxic
  redox potential: restored redox potential
[2]; [16]
  redox potential: did not have noticeable effect
[1]; MD 15 mM, (FIG. 5B)
  proportion of cells with elongated mitochondria: increased the proportion of cells with elongated mitochondria
[1]; co-treatment with 2.5 μM remdesivir, normoxic
  formation of elongated mitochondria vs remdesivir alone: significantly promoted the formation of elongated mitochondria
[1]; [16]
  protection of mitochondrial morphology: could only significantly protect hiPSC-CMs under hypoxic but not normoxic conditions
[1]; co-treatment with remdesivir, hypoxia
  proportion of cells with punctate mitochondria vs remdesivir alone: corresponding decrease
[3]; MD 15 mM co-treatment vs remdesivir alone (FIG. 5D)
  sarcomeres (MLC2V-eGFP): more striated sarcomeres
[3]; co-treatment with 2.5 μM and 12.5 μM remdesivir
  sarcomere arrangement: improved the sarcomere arrangement

## N#C[C@@]1(c2ccc3c(N)ncnn23)O[C@H](COP(=O)(O)OP(=O)(O)OP(=O)(O)O)[C@@H](O)[C@H]1O [remdesivir-triphosphate]
[4]
  selectivity value (discrimination against the analogue): ~500 fold

## CCC(CC)COC(=O)[C@H](C)N[P@](=O)(OC[C@H]1O[C@@](C#N)(c2ccc3c(N)ncnn23)[C@H](O)[C@@H]1O)Oc1ccccc1 [remdesivir]
[5]
  QT intervals: prolong QT intervals
[6]
  spontaneous firing frequency: 0.36±0.07 Hz
[2]; 0.1 μM and 0.5 μM, 3 days, normoxic and hypoxic
  effect on redox potential: negligible effects
[2]; 2.5 μM, 3 days hypoxic treatment + 3 days recovery without drug
  decrease of redox potential: 41.0±8.7%
[2]; 2.5 μM, 3 days, hypoxic (2.5% O2)
  decrease of redox activity: 22.5±5.4%
[2]; 2.5 μM, 3 days, normoxic
  decrease of redox activity: 21.0±3.9%
[2]; 12.5 μM, 3 days hypoxic treatment + 3 days recovery without drug
  decrease of redox potential: 54.6±8.5%
[2]; 12.5 μM, 3 days normoxic treatment + 3 days recovery without drug
  decrease of redox potential: 44.1±8.1%
[2]; 12.5 μM, 3 days, hypoxic (2.5% O2)
  decrease of redox activity: 28.7±6.9%
[2]; 12.5 μM, 3 days, normoxic
  decrease of redox activity: 35.9±4.0%
[1]; 0.5 μM, 3 days treatment + 3 days recovery
  mitochondrial morphology, treated vs control: no significant difference
[1]; 0.5 μM, normoxic
  proportion of cells with punctate, fragmented mitochondria: 44.4±7.1%
[1]; 2.5 μM
  proportion of cells with punctate mitochondria: 66.1±1.1%
  elongated mitochondria: 19.7±2.5%
  proportion of punctate mitochondria: 64.4±4.1%
  proportion of elongated mitochondria: 18.7±3.0%
[1]; 2.5 μM, normoxic
  proportion of cells with punctate, fragmented mitochondria: 57.3±7.2%
[1]; 12.5 μM
  proportion of cells with punctate mitochondria: 65.5±6.6%
  elongated mitochondria: 4.6±2.1%
  proportion of punctate mitochondria: 58.9±8%
  proportion of elongated mitochondria: 17.8±4.2%
[1]; 12.5 μM, 3 days treatment + 3 days recovery (follows the hypoxic data), control 6.5±1.5%
  proportion of cells with perinuclear mitochondria: 29.9±5.7%
[1]; 12.5 μM, normoxic
  proportion of cells with punctate, fragmented mitochondria: 64.4±9.5%
[1]; 3 days treatment + 3 days recovery (FIG. 4C)
  perinuclear mitochondria: enriched
[1]
  proportion of cells with healthy elongated mitochondria: reduced
[7]
  persistent functional alterations: did not induce persistent functional alterations
[8]
  mitochondrial mass: not statistically different
[9]; day 1 (200 mg)
  peak plasma concentration: 5.4 µg/mL
  Cmax: 8.9 µM
[9]; day 5
  peak plasma concentration: 2.6 µg/mL
  Cmax: 4.3 µM
[3]; 0.5 μM, 3 days, hypoxia
  sarcomeric arrangement: induced the thinning and truncation of myofibrils
[3]; 2.5 μM and 12.5 μM, 3 days treatment + 3 days recovery
  sarcomeric arrangement: disorganised sarcomeric arrangement
[3]; 0.1 and 0.5 μM, 3 days, normoxic
  sarcomeric arrangement: did not have any noticeable effect
[3]; 2.5 and 12.5 μM, 3 days, normoxic and hypoxic
  sarcomeric arrangement: greatly disorganised myofibrils
[10]; 2.5 μM and 12.5 μM, three days after treatment (recovery)
  proportion of condensed nuclei: dose dependent increase
[10]; 3 days, all samples
  cell number: No significant difference
[10]; immediately after 3 days of treatment
  number / proportion of cells with condensed nuclei: did not reveal any significant increase; also recorded: no statistically significant difference
[11]
  mitochondrial toxicity: demonstrated
[12]
  depolarisation of mitochondrial membrane potential (Δψm): No statistically significant decrease
[13]
  ATP6 mRNA expression: dose-dependently and significantly reduced
  COX6A2 mRNA expression: dose-dependently and significantly reduced
  ND1 mRNA expression: dose-dependently and significantly reduced
  ND5 mRNA expression: dose-dependently and significantly reduced
[14]; WHO Solidarity trial, comparator 0.4%
  rate of cardiac death: 0.3%
[14]; one clinical study, placebo 0.2%
  serious atrial fibrillation: 0.9%
[14]; one clinical study, placebo 1.4%
  risk of cardiac arrest: 1.9%

## NC(=O)c1ncn([C@@H]2O[C@H](CO)[C@@H](O)[C@H]2O)n1 [ribavirin]
[15]
  proportion of cells with healthy elongated mitochondria: did not have noticeable effect
[1]
  mitochondrial morphology (MTDR dye): primarily had elongated mitochondria

## β-D-N4-hydroxycytidine
[1]
  mitochondrial morphology (MTDR dye): punctate (arrowhead) or perinuclear (arrow) mitochondria
  proportion of cells with healthy elongated mitochondria: reduced
